# Results as given in patent US12077503B2, “Substituted cyclic amides and their use as herbicides” (FMC CORPORATION, priority 2015, dated 2024).
# Legend:
# Assay type in all cases: in vivo
# [1] = system: ragweed (common ragweed, Ambrosia elatior); experiment: Test A preemergence; conditions: Ambrosia artemisiifolia, pre-emergence, 240 h, preemergence, 0 to 100 scale where 0 is no effect and 100 is complete control, read-out: Ragweed plant response rating; for pest or weed control at 125 g/ha: 125 g ai/ha, visual injury rating, approximately 10 d; for pest or weed control at 500 g/ha: 500 g ai/ha
# Outline: (§1)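 Visual injury, scored on a 0–100 scale relative to untreated controls, was recorded about 10 d after application. Treatments were a preemergence soil spray over planted seeds or a postemergence spray on plants at the one- to two-leaf stage, 2 to 10 cm tall, all in loam soil–sand blend in the greenhouse.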
# [2] = system: Kochia (Kochia scoparia); experiment: Test A preemergence; conditions: Bassia scoparia, pre-emergence, 240 h, preemergence, 0 to 100 scale where 0 is no effect and 100 is complete control, read-out: Kochia plant response rating; for pest or weed control at 125 g/ha: 125 g ai/ha, visual injury rating, approximately 10 d; for pest or weed control at 500 g/ha: 500 g ai/ha
# Outline: as §1
# [3] = system: ryegrass, Italian (Italian ryegrass, Lolium multiflorum); experiment: Test A preemergence; conditions: Lolium multiflorum, pre-emergence, 240 h, preemergence, 0 to 100 scale where 0 is no effect and 100 is complete control, read-out: Ryegrass, Italian plant response rating; for pest or weed control at 125 g/ha: 125 g ai/ha, visual injury rating, approximately 10 d; for pest or weed control at 500 g/ha: 500 g ai/ha
# Outline: as §1
# [4] = system: pigweed (Amaranthus retroflexus); experiment: Test A preemergence; conditions: Amaranthus retroflexus, pre-emergence, 240 h, preemergence, 0 to 100 scale where 0 is no effect and 100 is complete control, read-out: Pigweed plant response rating; for pest or weed control at 125 g/ha: 125 g ai/ha, visual injury rating, approximately 10 d; for pest or weed control at 500 g/ha: 500 g ai/ha
# [5] = system: barnyardgrass (Echinochloa crus-galli); experiment: Test A preemergence; conditions: Echinochloa crus-galli, pre-emergence, 240 h, preemergence, 0 to 100 scale where 0 is no effect and 100 is complete control, read-out: Barnyardgrass plant response rating; for pest or weed control at 125 g/ha: 125 g ai/ha, visual injury rating, approximately 10 d; for pest or weed control at 500 g/ha: 500 g ai/ha
# Outline: as §1
# [6] = system: giant foxtail (Setaria faberii); experiment: Test A preemergence; conditions: Setaria faberi, pre-emergence, 240 h, preemergence, 0 to 100 scale where 0 is no effect and 100 is complete control, read-out: Foxtail, Giant plant response rating; for pest or weed control at 125 g/ha: 125 g ai/ha, visual injury rating, approximately 10 d; for pest or weed control at 500 g/ha: 500 g ai/ha
# Outline: as §1
# [7] = system: ragweed (common ragweed, Ambrosia elatior); experiment: Test A postemergence; conditions: Ambrosia artemisiifolia, post-emergence, 240 h, postemergence; for pest or weed control at 125 g/ha: 125 g ai/ha, visual injury vs untreated controls after approx. 10 d, 0 = no effect, 100 = complete control, read-out: Ragweed plant response rating (0 to 100 scale); for pest or weed control at 500 g/ha: 500 g ai/ha, 0 to 100 scale, 0 is no effect, 100 is complete control, read-out: Ragweed plant response rating
# Outline: as §1
# [8] = system: ryegrass, Italian (Italian ryegrass, Lolium multiflorum); experiment: Test A postemergence; conditions: Lolium multiflorum, post-emergence, 240 h, postemergence; for pest or weed control at 125 g/ha: 125 g ai/ha, visual injury vs untreated controls after approx. 10 d, 0 = no effect, 100 = complete control, read-out: Ryegrass, Italian plant response rating (0 to 100 scale); for pest or weed control at 500 g/ha: 500 g ai/ha, 0 to 100 scale, 0 is no effect, 100 is complete control, read-out: Ryegrass, Italian plant response rating
# Outline: as §1
# [9] = system: pigweed (Amaranthus retroflexus); experiment: Test A postemergence; conditions: Amaranthus retroflexus, post-emergence, 240 h, postemergence; for pest or weed control at 125 g/ha: 125 g ai/ha, visual injury vs untreated controls after approx. 10 d, 0 = no effect, 100 = complete control, read-out: Pigweed plant response rating (0 to 100 scale); for pest or weed control at 500 g/ha: 500 g ai/ha, 0 to 100 scale, 0 is no effect, 100 is complete control, read-out: Pigweed plant response rating
# Outline: as §1
# [10] = system: blackgrass (Alopecurus myosuroides); experiment: Test A postemergence; conditions: Alopecurus myosuroides, post-emergence, 240 h, postemergence; for pest or weed control at 125 g/ha: 125 g ai/ha, visual injury vs untreated controls after approx. 10 d, 0 = no effect, 100 = complete control, read-out: Blackgrass plant response rating (0 to 100 scale); for pest or weed control at 500 g/ha: 500 g ai/ha, 0 to 100 scale, 0 is no effect, 100 is complete control, read-out: Blackgrass plant response rating
# Outline: as §1
# [11] = system: barnyardgrass (Echinochloa crus-galli); experiment: Test A postemergence; conditions: Echinochloa crus-galli, post-emergence, 240 h, postemergence; for pest or weed control at 125 g/ha: 125 g ai/ha, visual injury vs untreated controls after approx. 10 d, 0 = no effect, 100 = complete control, read-out: Barnyardgrass plant response rating (0 to 100 scale); for pest or weed control at 500 g/ha: 500 g ai/ha, 0 to 100 scale, 0 is no effect, 100 is complete control, read-out: Barnyardgrass plant response rating
# Outline: as §1
# [12] = system: corn (Zea mays); experiment: Test A postemergence; conditions: Zea mays, post-emergence, 240 h, postemergence; for plant injury at 125 g/ha: 125 g ai/ha, visual injury vs untreated controls after approx. 10 d, 0 = no effect, 100 = complete control, read-out: Corn plant response rating (0 to 100 scale); for plant injury at 500 g/ha: 500 g ai/ha, 0 to 100 scale, 0 is no effect, 100 is complete control, read-out: Corn plant response rating
# Outline: as §1
# [13] = system: Galium (catchweed bedstraw, Galium aparine); experiment: Test A postemergence; conditions: Galium, post-emergence, 240 h, postemergence; for pest or weed control at 125 g/ha: 125 g ai/ha, visual injury vs untreated controls after approx. 10 d, 0 = no effect, 100 = complete control, read-out: Galium plant response rating (0 to 100 scale); for pest or weed control at 500 g/ha: 500 g ai/ha, 0 to 100 scale, 0 is no effect, 100 is complete control, read-out: Galium plant response rating
# Outline: as §1
# [14] = system: wheat (Triticum aestivum); experiment: Test A postemergence; conditions: Triticum aestivum, post-emergence, 240 h, postemergence; for plant injury at 125 g/ha: 125 g ai/ha, visual injury vs untreated controls after approx. 10 d, 0 = no effect, 100 = complete control, read-out: Wheat plant response rating (0 to 100 scale)
# Outline: as §1
# [15] = system: giant foxtail (Setaria faberii); experiment: Test A postemergence; conditions: Setaria faberi, post-emergence, 240 h, postemergence; for pest or weed control at 125 g/ha: 125 g ai/ha, visual injury vs untreated controls after approx. 10 d, 0 = no effect, 100 = complete control, read-out: Foxtail, Giant plant response rating (0 to 100 scale); for pest or weed control at 500 g/ha: 500 g ai/ha, 0 to 100 scale, 0 is no effect, 100 is complete control, read-out: Foxtail, Giant plant response rating
# Outline: as §1
Structure (SMILES),pest or weed control at 125 g/ha [1],pest or weed control at 500 g/ha [1],pest or weed control at 125 g/ha [2],pest or weed control at 500 g/ha [2],pest or weed control at 125 g/ha [3],pest or weed control at 500 g/ha [3],pest or weed control at 125 g/ha [4],pest or weed control at 500 g/ha [4],pest or weed control at 125 g/ha [5],pest or weed control at 500 g/ha [5],pest or weed control at 125 g/ha [6],pest or weed control at 500 g/ha [6],pest or weed control at 125 g/ha [7],pest or weed control at 500 g/ha [7],pest or weed control at 125 g/ha [8],pest or weed control at 500 g/ha [8],pest or weed control at 125 g/ha [9],pest or weed control at 500 g/ha [9],pest or weed control at 125 g/ha [10],pest or weed control at 500 g/ha [10],other results
Cc1cccc([C@H]2CN(C)C(=O)[C@@H]2C(=O)Nc2ccc(F)c(F)c2F)c1 [Compound 1231],30%,60%,70%,90%,40%,90%,40%,70%,90%,90%,90%,90%,0%,30%,40%,50%,0%,50%,0%,40%,pest or weed control at 125 g/ha [11]: 80%; pest or weed control at 500 g/ha [11]: 80%; plant injury at 125 g/ha [12]: 70%; plant injury at 500 g/ha [12]: 80%; pest or weed control at 125 g/ha [13]: 50%; pest or weed control at 500 g/ha [13]: 70%; plant injury at 125 g/ha [14]: 50%; pest or weed control at 125 g/ha [15]: 80%; pest or weed control at 500 g/ha [15]: 90%
Cc1ccc([C@H]2CCN(C)C(=O)[C@@H]2C(=O)Nc2cccc(Cl)c2F)cc1 [Compound 1223],0%,20%,0%,20%,0%,0%,0%,0%,90%,90%,90%,90%,0%,20%,20%,60%,0%,0%,30%,50%,"pest or weed control at 125 g/ha [11]: 30%; pest or weed control at 500 g/ha [11]: 50%; plant injury at 125 g/ha [12]: 0%; plant injury at 500 g/ha [12]: 0%; pest or weed control at 125 g/ha [13]: 20%; pest or weed control at 500 g/ha [13]: 40%; plant injury at 125 g/ha [14]: 0%; plant injury at 500 g/ha ([14]; 500 g ai/ha, 0 to 100 scale, 0 is no effect, 100 is complete control, read-out: Wheat plant response rating): 30%; pest or weed control at 125 g/ha [15]: 90%; pest or weed control at 500 g/ha [15]: 90%"
